# Source: patent publication US10786547B2, “Compositions, articles of manufacture and methods for treating cancer” (Biokine Therapeutics Ltd., priority 2015, dated 2020)
# Entries after “also recorded” stand apart in the source; their conditions may differ. [ ]: non-standard residue; d: D form. The star is where a group is joined. Benzoyl(4-F) = O=C(c1ccc(F)cc1)*; Cit = NC(=O)NCCC[C@H](N)C(=O)O
# Assays:
# [1] = test system: immune cells including immature stem/progenitor cells, T cells and NK cells; assay: in-vivo administration, mobilization of immune and stem/progenitor cells; details: to the peripheral blood
# [2] = in vivo
# CXCR4 receptor = CXCR4 receptor (Homo sapiens, UniProt P61073); details: cited from earlier work
# [3] = test system: long term repopulating stem cells; details: mice, single BL-8040 injection; cited from earlier work
# [4] = test system: CD34+ hematopoietic stem/progenitor cells (HSPC); details: multiple myeloma patients, combined treatment of BL-8040 and G-CSF, single aphaeresis procedure; cited from earlier work
# [5] = test system: myeloid leukemia, hematopoietic tumors and non-small cell lung cancer; details: cited from earlier work
# [6] = test system: immune cells including immature stem/progenitor cells, T cells and NK cells; details: "It has been shown"; cited from earlier work
# CXCR4 receptor, sequence (P61073 whole entry): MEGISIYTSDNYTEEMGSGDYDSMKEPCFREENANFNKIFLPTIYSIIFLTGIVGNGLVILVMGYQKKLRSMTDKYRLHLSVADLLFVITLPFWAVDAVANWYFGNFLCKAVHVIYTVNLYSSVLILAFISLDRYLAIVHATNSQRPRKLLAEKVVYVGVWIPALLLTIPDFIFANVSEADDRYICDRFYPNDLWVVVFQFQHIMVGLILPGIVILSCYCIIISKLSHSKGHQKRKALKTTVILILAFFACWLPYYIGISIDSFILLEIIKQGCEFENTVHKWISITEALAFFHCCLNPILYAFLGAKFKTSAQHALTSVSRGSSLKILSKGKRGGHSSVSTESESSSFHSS
substance,measurement,setting,value
4F-benzoyl-Arg-Arg-Nal-Cys-Tyr-Cit-Lys-DLys-Pro-Tyr-Arg-Cit-Cys-Arg-NH2 ({Benzoyl(4-F)}-RR[Nal]CY[Cit]K[dK]PYR[Cit]CR-NH2; cysteine pairing not given here) [BL-8040],mobilization of immune cells,[1],"induces rapid mobilization of a variety of immune cells including immature stem/progenitor cells as well as fully differentiated T cells and NK cells; also recorded: induce rapid mobilization of hematopoietic stem/progenitor cells and mesenchymal stem cells as well as T cells, B cells, NK cells, NKT cells and ImDC to the peripheral blood"
same,safety and tolerability,[2],safe and well tolerated
same,receptor occupancy,CXCR4 receptor; CXCR4 receptor,long receptor occupancy
same,affinity of binding to the CXCR4 receptor,CXCR4 receptor,high affinity
same,mobilization of long term repopulating stem cells,[3],mobilized long term repopulating stem cells sufficient for transplantation
same,collection of CD34+ hematopoietic stem/progenitor cells (HSPC),[4],enabled the collection of high number of CD34+ hematopoietic stem/progenitor cells (HSPC) in a single aphaeresis procedure
same,toxicity against tumors,[5],"toxic against several tumors such as myeloid leukemia, hematopoietic tumors and non-small cell lung cancer"
same,mobilization of CD34+ hematopoietic stem/progenitor cells (HSPC),[6],induces mobilization of CD34+ hematopoietic stem/progenitor cells (HSPC) that can be further used for transplantation
